Measurements reported in publication PMC6199744, “Development of Chemical Proteomics for the Folateome and Analysis of the Kinetoplastid Folateome” (ACS Infectious Diseases, 2018).
Like-named read-outs stand apart in the source and are kept apart here.

Assays:
Format in all cases: binding
[1] = target: T1, HeLa cell extract proteins (Homo sapiens, UniProt P26639)
T1 construct: endogenous in cells; host or cells: HeLa cell extract
T1 sequence (P26639 1-723): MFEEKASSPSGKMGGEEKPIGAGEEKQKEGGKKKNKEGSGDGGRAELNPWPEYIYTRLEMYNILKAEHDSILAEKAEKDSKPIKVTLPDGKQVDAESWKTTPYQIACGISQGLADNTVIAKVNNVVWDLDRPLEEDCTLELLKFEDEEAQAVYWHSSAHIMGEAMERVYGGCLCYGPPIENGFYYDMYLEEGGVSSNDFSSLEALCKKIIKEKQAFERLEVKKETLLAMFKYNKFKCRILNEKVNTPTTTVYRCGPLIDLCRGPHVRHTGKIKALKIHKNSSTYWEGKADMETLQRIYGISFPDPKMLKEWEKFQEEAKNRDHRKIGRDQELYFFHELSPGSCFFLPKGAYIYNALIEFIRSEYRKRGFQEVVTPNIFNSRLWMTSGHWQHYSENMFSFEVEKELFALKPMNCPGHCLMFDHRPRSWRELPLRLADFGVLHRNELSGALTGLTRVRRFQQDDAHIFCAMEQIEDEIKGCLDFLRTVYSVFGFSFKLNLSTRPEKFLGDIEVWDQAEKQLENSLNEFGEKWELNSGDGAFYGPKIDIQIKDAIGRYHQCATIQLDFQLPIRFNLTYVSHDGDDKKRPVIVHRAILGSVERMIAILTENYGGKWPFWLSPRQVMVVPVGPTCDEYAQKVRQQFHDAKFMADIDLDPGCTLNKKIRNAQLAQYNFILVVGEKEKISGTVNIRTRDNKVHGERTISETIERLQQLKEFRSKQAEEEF

[2] = target: T2, HeLa cell extract proteins (Homo sapiens, UniProt Q969M3)
T2 construct: endogenous in cells; host or cells: HeLa cell extract

[3] = target: T3, HeLa cell extract proteins (Homo sapiens, UniProt Q13315)
T3 construct: endogenous in cells; host or cells: HeLa cell extract

[4] = target: T4, HeLa cell extract proteins (Homo sapiens, UniProt Q8TEM1)
T4 construct: endogenous in cells; host or cells: HeLa cell extract

[5] = target: T5, HeLa cell extract proteins (Homo sapiens, UniProt O75608)
T5 construct: endogenous in cells; host or cells: HeLa cell extract

[6] = target: T6, HeLa cell extract proteins (Homo sapiens, UniProt Q96LA8)
T6 construct: endogenous in cells; host or cells: HeLa cell extract

[7] = target: T7, HeLa cell extract proteins (Homo sapiens, UniProt P55072)
T7 construct: endogenous in cells; host or cells: HeLa cell extract

[8] = target: T8, HeLa cell extract proteins (Homo sapiens, UniProt O95429)
T8 construct: endogenous in cells; host or cells: HeLa cell extract
T8 sequence (O95429 1-457): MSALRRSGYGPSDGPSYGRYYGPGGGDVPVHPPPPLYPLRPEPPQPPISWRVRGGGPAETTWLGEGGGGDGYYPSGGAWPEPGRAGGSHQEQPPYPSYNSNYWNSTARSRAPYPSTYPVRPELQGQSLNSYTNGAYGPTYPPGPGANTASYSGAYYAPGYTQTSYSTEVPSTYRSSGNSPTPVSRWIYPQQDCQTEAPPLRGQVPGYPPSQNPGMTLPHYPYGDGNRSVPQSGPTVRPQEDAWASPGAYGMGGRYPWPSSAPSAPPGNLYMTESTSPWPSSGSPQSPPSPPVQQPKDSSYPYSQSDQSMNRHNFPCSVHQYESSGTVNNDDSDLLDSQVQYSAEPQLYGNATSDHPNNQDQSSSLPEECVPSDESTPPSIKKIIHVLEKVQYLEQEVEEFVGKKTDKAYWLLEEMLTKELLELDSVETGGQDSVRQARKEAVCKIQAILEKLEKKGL

[9] = target: T9, HeLa cell extract proteins (Homo sapiens, UniProt Q5H9R7)
T9 construct: endogenous in cells; host or cells: HeLa cell extract
T9 sequence (Q5H9R7 1-873): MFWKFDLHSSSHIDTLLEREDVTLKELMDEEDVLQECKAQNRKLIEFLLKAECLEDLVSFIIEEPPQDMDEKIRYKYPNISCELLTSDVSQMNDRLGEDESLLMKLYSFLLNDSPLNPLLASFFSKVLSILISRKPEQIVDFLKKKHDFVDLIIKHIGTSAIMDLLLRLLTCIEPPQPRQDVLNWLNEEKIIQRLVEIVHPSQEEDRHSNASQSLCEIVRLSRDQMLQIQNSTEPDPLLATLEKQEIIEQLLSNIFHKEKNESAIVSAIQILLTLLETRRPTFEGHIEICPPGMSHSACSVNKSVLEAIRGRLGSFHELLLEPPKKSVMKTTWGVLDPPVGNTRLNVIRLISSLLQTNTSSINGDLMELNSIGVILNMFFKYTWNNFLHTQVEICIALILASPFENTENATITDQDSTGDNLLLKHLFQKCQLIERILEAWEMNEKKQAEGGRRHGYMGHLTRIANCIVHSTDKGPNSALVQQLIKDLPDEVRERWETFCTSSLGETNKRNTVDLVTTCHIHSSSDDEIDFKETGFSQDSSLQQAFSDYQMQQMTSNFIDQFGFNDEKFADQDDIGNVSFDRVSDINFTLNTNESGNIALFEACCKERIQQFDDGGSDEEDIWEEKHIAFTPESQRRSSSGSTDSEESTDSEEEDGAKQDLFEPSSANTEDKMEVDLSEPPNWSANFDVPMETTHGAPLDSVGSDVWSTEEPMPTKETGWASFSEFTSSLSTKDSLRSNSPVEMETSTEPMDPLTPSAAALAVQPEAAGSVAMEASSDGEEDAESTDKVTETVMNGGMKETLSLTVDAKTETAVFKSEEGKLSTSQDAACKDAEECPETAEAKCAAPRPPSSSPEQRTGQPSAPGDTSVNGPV

[10] = target: T10, HeLa cell extract proteins (Homo sapiens, UniProt Q9H0N5)
T10 construct: endogenous in cells; host or cells: HeLa cell extract

[11] = target: T11, HeLa cell extract proteins (Homo sapiens, UniProt O75964)
T11 construct: endogenous in cells; host or cells: HeLa cell extract
T11 sequence (O75964 1-103): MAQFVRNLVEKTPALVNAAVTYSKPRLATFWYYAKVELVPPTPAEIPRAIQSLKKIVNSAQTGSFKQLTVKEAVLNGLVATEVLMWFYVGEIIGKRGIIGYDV

[12] = HeLa, protein PRMT6 (PROTEIN ARGININE N-METHYLTRANSFERASE 6)
[13] = HeLa, protein BAG4 (BAG FAMILY MOLECULAR CHAPERONE REGULATOR 4)

T4 sequence (Q8TEM1 27-1887): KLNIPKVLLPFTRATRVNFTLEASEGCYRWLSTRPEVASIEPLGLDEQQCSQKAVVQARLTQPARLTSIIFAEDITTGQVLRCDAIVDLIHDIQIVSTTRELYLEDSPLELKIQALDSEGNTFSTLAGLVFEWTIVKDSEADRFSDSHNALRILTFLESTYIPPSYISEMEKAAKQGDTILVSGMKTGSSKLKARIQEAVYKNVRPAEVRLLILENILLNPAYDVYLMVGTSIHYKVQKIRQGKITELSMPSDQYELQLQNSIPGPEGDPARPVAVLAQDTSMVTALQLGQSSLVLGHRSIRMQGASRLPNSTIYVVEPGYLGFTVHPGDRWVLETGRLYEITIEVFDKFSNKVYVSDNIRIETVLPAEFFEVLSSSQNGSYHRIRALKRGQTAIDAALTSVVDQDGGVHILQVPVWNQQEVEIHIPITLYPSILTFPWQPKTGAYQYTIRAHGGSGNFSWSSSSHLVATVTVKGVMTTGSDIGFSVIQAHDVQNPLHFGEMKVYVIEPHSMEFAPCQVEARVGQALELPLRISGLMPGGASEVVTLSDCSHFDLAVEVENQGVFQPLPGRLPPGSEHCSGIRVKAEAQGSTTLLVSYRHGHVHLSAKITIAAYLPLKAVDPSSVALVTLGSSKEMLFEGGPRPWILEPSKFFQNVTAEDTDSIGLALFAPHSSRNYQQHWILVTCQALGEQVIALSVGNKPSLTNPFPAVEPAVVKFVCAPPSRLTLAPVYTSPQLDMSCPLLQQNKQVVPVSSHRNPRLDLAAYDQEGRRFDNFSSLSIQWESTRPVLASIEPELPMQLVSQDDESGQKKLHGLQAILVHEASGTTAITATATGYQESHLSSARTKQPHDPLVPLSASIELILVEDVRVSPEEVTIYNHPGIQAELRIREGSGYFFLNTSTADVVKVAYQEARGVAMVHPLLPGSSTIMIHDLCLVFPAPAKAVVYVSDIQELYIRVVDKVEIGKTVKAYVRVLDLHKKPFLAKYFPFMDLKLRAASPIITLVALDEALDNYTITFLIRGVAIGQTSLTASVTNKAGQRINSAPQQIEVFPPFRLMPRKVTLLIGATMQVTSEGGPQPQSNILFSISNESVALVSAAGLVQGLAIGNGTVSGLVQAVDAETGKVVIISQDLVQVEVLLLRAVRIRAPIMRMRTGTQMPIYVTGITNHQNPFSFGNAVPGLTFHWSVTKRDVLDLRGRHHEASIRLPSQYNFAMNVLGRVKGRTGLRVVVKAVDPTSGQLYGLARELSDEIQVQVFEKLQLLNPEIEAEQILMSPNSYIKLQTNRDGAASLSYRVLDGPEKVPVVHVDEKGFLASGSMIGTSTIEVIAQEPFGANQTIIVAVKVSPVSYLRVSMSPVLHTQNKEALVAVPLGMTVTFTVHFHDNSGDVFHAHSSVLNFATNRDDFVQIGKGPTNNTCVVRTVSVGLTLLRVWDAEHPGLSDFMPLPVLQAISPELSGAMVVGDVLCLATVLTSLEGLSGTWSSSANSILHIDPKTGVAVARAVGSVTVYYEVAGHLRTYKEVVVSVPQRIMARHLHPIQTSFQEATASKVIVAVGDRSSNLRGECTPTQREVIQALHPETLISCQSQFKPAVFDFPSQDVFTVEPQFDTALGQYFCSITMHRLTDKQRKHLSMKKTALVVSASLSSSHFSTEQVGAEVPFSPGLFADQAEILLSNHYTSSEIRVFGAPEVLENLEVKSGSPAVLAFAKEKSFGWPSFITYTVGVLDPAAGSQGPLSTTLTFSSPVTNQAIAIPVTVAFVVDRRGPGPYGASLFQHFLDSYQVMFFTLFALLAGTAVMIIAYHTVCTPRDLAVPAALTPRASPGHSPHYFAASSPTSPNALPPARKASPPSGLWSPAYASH
T7 sequence (P55072 whole entry): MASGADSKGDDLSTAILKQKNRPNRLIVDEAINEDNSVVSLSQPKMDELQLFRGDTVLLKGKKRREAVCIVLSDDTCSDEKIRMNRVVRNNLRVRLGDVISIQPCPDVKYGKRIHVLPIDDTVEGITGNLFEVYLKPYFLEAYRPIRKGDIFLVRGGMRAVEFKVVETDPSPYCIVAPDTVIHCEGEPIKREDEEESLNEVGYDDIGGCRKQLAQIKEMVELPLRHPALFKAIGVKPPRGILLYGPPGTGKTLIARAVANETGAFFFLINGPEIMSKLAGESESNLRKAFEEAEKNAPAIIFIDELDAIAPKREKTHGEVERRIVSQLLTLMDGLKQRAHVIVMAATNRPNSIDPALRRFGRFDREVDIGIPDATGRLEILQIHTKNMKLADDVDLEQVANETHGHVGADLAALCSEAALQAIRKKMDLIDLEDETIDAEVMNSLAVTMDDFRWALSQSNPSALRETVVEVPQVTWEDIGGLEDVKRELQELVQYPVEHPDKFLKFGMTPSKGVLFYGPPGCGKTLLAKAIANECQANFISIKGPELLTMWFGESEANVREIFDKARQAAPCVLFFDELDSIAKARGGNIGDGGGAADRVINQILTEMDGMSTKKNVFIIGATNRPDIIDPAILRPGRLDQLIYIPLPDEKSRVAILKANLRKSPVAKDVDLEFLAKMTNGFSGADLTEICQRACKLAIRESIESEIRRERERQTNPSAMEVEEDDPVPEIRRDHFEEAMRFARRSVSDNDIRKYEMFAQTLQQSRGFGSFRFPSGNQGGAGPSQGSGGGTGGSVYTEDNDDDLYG
T6 sequence (Q96LA8 whole entry): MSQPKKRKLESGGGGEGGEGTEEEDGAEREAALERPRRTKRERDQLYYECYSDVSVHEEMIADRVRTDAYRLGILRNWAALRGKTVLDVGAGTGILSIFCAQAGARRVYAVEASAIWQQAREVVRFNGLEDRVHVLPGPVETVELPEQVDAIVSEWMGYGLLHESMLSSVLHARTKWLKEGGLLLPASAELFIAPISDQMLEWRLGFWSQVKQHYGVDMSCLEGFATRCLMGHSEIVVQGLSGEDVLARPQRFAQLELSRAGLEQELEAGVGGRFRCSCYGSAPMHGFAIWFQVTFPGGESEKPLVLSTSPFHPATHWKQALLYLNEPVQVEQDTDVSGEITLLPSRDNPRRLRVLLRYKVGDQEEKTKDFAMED
T10 sequence (Q9H0N5 whole entry): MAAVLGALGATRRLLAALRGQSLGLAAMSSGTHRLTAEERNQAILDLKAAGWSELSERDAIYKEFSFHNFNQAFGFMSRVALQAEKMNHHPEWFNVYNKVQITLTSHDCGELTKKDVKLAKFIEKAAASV
T2 sequence (Q969M3 whole entry): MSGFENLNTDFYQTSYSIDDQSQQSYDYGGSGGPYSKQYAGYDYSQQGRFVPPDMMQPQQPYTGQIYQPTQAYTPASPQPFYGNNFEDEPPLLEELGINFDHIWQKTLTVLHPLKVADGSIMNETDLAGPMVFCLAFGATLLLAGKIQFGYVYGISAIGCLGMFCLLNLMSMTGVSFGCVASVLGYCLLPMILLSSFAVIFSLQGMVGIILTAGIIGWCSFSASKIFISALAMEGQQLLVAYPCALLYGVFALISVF
T5 sequence (O75608 whole entry): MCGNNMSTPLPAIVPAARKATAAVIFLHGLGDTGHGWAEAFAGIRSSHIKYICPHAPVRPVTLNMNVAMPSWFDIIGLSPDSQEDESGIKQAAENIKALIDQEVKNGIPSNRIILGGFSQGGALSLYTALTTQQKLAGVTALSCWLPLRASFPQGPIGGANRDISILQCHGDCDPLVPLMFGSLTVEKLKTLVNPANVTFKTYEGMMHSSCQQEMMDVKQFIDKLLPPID

Nc1nc2c(c(=O)[nH]1)N(C=O)C(CNc1ccc(C(=O)N[C@@H](CCC(=O)O)C(=O)O)cc1)CN2 (some centres unmarked) [LEU, leucovorin]
fold changes relative to vehicle control ([1]; HeLa, protein TARS): 1.03 | fold changes relative to vehicle control ([2]; HeLa, captured protein YIPF5): 0.94 | fold changes relative to vehicle control ([3]; HeLa, protein ATM): 0.92 | fold changes relative to vehicle control ([4]; HeLa, captured protein NUP210): 0.97 | fold changes relative to vehicle control ([5]; HeLa, captured protein LYPLA1): 0.89 | fold changes relative to vehicle control [6, 12]: 1.17 | fold changes relative to vehicle control ([7]; HeLa, protein VCP): 0.98 | fold changes relative to vehicle control [8, 13]: 1.2 | fold changes relative to vehicle control ([9]; HeLa, protein SAPS3): 0.94 | fold changes relative to vehicle control ([10]; HeLa, captured protein PCBD2): 1.14 | fold changes relative to vehicle control ([11]; HeLa, protein ATP5L): 1.07

Nc1nc2[nH]cc(CCc3ccc(C(=O)N[C@@H](CCC(=O)O)C(=O)O)cc3)c2c(=O)[nH]1 [PTX, pemetrexed]
fold changes relative to vehicle control [1]: 1.02 | fold changes relative to vehicle control [2]: 0.98 | fold changes relative to vehicle control [3]: 1.04 | fold changes relative to vehicle control [4]: 0.99 | fold changes relative to vehicle control [5]: 0.93 | fold changes relative to vehicle control [6]: 1.03 | fold changes relative to vehicle control [7]: 0.98 | fold changes relative to vehicle control [8]: 1.05 | fold changes relative to vehicle control [9]: 0.94 | fold changes relative to vehicle control [10]: 0.99 | fold changes relative to vehicle control [11]: 1.32

CCCCCCOc1ccc(Cc2cnc(N)nc2N)cc1 [compound 1]
fold changes relative to vehicle control ([1]; protein TARS, HeLa): 1.27 | fold changes relative to vehicle control ([2]; captured protein YIPF5, HeLa): 1.43 | fold changes relative to vehicle control ([3]; HeLa, protein ATM): 1.03 | fold changes relative to vehicle control ([4]; captured protein NUP210, HeLa): 0.74 | fold changes relative to vehicle control ([5]; HeLa, protein LYPLA1): 0.92 | fold changes relative to vehicle control ([6]; protein PRMT6, HeLa): 1.01 | fold changes relative to vehicle control ([7]; protein VCP, HeLa): 0.94 | fold changes relative to vehicle control ([8]; captured protein BAG4, HeLa): 0.99 | fold changes relative to vehicle control ([9]; HeLa, protein SAPS3): 0.96 | fold changes relative to vehicle control ([10]; captured protein PCBD2, HeLa): 0.88 | fold changes relative to vehicle control ([11]; protein ATP5L, HeLa): 1.2

CCCCCCOc1cccc(Cc2cnc(N)nc2N)c1 [compound 2]
fold changes relative to vehicle control ([1]; protein TARS, HeLa): 2.02 | fold changes relative to vehicle control ([2]; captured protein YIPF5, HeLa): 1.15 | fold changes relative to vehicle control ([3]; HeLa, protein ATM): 1.01 | fold changes relative to vehicle control ([4]; captured protein NUP210, HeLa): 0.98 | fold changes relative to vehicle control ([5]; HeLa, protein LYPLA1): 1.1 | fold changes relative to vehicle control ([6]; protein PRMT6, HeLa): 0.89 | fold changes relative to vehicle control ([7]; protein VCP, HeLa): 1.29 | fold changes relative to vehicle control ([8]; captured protein BAG4, HeLa): 0.93 | fold changes relative to vehicle control ([9]; HeLa, protein SAPS3): 1.09 | fold changes relative to vehicle control ([10]; captured protein PCBD2, HeLa): 0.77 | fold changes relative to vehicle control ([11]; protein ATP5L, HeLa): 0.95

Nc1nc2cccc(-c3ccccc3)c2n1Cc1ccc(Cl)c(Cl)c1 [compound 3]
fold changes relative to vehicle control ([1]; protein TARS, HeLa): 0.98 | fold changes relative to vehicle control ([2]; captured protein YIPF5, HeLa): 0.72 | fold changes relative to vehicle control ([3]; HeLa, protein ATM): 1.14 | fold changes relative to vehicle control ([4]; captured protein NUP210, HeLa): 0.86 | fold changes relative to vehicle control ([5]; HeLa, protein LYPLA1): 0.71 | fold changes relative to vehicle control ([6]; protein PRMT6, HeLa): 0.93 | fold changes relative to vehicle control ([7]; protein VCP, HeLa): 0.94 | fold changes relative to vehicle control ([8]; captured protein BAG4, HeLa): 1.25 | fold changes relative to vehicle control ([9]; HeLa, protein SAPS3): 1.11 | fold changes relative to vehicle control ([10]; captured protein PCBD2, HeLa): 1 | fold changes relative to vehicle control ([11]; protein ATP5L, HeLa): 0.98

NCCOCCOCC(=O)Nc1nc2ncc(CNc3ccc(C(=O)NC(CCC(=O)O)C(=O)O)cc3)nc2c(=O)[nH]1 (centres unmarked) [compound 6]
fold changes relative to vehicle control ([1]; HeLa, protein TARS): 1.12 | fold changes relative to vehicle control ([2]; HeLa, captured protein YIPF5): 0.93 | fold changes relative to vehicle control ([3]; HeLa, protein ATM): 1.1 | fold changes relative to vehicle control ([4]; HeLa, captured protein NUP210): 1.07 | fold changes relative to vehicle control ([5]; HeLa, captured protein LYPLA1): 0.98 | fold changes relative to vehicle control [6, 12]: 0.93 | fold changes relative to vehicle control ([7]; HeLa, protein VCP): 1.07 | fold changes relative to vehicle control [8, 13]: 1.03 | fold changes relative to vehicle control ([9]; HeLa, protein SAPS3): 0.88 | fold changes relative to vehicle control ([10]; HeLa, captured protein PCBD2): 1.02 | fold changes relative to vehicle control ([11]; HeLa, protein ATP5L): 0.98

NCCCNc1ccc(C(=O)NC(CCC(=O)O)C(=O)O)cc1 (centres unmarked) [compound 7]
fold changes relative to vehicle control ([1]; HeLa, protein TARS): 0.97 | fold changes relative to vehicle control ([2]; HeLa, captured protein YIPF5): 0.83 | fold changes relative to vehicle control ([3]; HeLa, protein ATM): 1.09 | fold changes relative to vehicle control ([4]; HeLa, captured protein NUP210): 1.05 | fold changes relative to vehicle control ([5]; HeLa, captured protein LYPLA1): 0.92 | fold changes relative to vehicle control [6, 12]: 1.01 | fold changes relative to vehicle control ([7]; HeLa, protein VCP): 1.01 | fold changes relative to vehicle control [8, 13]: 1.12 | fold changes relative to vehicle control ([9]; HeLa, protein SAPS3): 0.93 | fold changes relative to vehicle control ([10]; HeLa, captured protein PCBD2): 1.14 | fold changes relative to vehicle control ([11]; HeLa, protein ATP5L): 0.97
